Source: ChEMBL document CHEMBL5233265, “Recent advances in the design and development of formyl peptide receptor 2 (FPR2/ALX) agonists as pro-resolving agents with diverse therapeutic potential” (Eur J Med Chem, 2021)
One block for each compound: values may come before it.

Tests used:
[1] = target: T1, N-formyl peptide receptor 2 (Homo sapiens, UniProt P25090); assay: Agonist activity at FPR2 (unknown origin) assessed as increase in calcium flux
T1 sequence (P25090 whole entry): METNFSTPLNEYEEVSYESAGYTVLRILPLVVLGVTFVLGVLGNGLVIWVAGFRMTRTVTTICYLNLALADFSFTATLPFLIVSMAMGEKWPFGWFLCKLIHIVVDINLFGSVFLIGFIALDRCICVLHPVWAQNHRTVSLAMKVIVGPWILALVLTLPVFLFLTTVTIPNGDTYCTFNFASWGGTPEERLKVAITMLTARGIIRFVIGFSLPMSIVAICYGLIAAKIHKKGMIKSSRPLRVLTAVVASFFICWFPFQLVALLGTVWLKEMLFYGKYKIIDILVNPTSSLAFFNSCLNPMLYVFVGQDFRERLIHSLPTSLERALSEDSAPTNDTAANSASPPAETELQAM

[2] = target: T2, fMet-Leu-Phe receptor (Homo sapiens, UniProt P21462); assay: Agonist activity at human FPR1 transfected in HL-60 cells assessed as increase in intracellular calcium flux incubated for 30 mins by Fluo-4 AM dye based FLIPR-fluorometeric assay; assay type: cell-based
T2 sequence (P21462 whole entry): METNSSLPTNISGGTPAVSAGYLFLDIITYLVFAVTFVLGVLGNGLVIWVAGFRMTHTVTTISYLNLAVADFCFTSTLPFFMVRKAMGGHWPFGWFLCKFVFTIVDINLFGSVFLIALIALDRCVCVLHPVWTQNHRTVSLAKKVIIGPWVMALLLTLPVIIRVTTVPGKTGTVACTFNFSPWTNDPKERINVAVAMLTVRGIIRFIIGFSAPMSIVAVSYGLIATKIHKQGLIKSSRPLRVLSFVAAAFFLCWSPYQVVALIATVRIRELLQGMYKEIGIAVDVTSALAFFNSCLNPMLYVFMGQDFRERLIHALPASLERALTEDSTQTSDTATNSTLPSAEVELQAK

[3] = target: T1, N-formyl peptide receptor 2; assay: Agonist activity at human FPR2 transfected in HL-60 cells assessed as increase in intracellular calcium flux incubated for 30 mins by Fluo-4 AM dye based FLIPR-fluorometeric assay; assay type: cell-based
[4] = system: PMNL; assay: Agonist activity at FPR in human PMNL cells assessed as maximal intracellular calcium mobilization incubated for 30 mins by Fluo-4 AM dye based FLIPR-fluorometeric assay relative to control; assay type: cell-based; conditions: filed as agonist
[5] = Agonist activity at FPR in human PMNL cells assessed as increase in intracellular calcium mobilization incubated for 30 mins by Fluo-4 AM dye based FLIPR-fluorometeric assay; assay type: cell-based; conditions: 0.5 h
[6] = target: T3, N-formyl peptide receptor 2 (Homo sapiens) (UniProt P25090); assay: Agonist activity at human FPR2 transfected in HL-60 cells assessed as maximal intracellular calcium flux incubated for 30 mins by Fluo-4 AM dye based FLIPR-fluorometeric assay relative to control; assay type: cell-based; conditions: filed as agonist
T3 sequence (whole entry): T1 sequence (P25090 whole entry)

[7] = target: T4, fMet-Leu-Phe receptor (Homo sapiens) (UniProt P21462); assay: Agonist activity at human FPR1 transfected in HL-60 cells assessed as maximal intracellular calcium flux incubated for 30 mins by Fluo-4 AM dye based FLIPR-fluorometeric assay relative to control; assay type: cell-based; conditions: filed as agonist
T4 sequence (whole entry): T2 sequence (P21462 whole entry)

[8] = target: T1, N-formyl peptide receptor 2; assay: Agonist activity at human FPR2 transfected in HL-60 cells assessed as increase in intracellular calcium flux incubated for 30 mins by Fluo-4 AM dye based fluorometer analysis; assay type: cell-based; conditions: read-out: EC50
[9] = Agonist activity at FPR in human PMNL cells assessed as increase in intracellular calcium mobilization incubated for 30 mins by Fluo-4 AM dye based fluorometer analysis; assay type: cell-based; conditions: 0.5 h
[10] = target: T2, fMet-Leu-Phe receptor; assay: Agonist activity at human FPR1 transfected in HL-60 cells assessed as increase in intracellular calcium flux incubated for 30 mins by Fluo-4 AM dye based fluorometer analysis; assay type: cell-based; conditions: read-out: EC50
[11] = target: T2, fMet-Leu-Phe receptor; assay: Agonist activity at FPR1 (unknown origin) expressed in CHO/Galpha16 cells assessed as increase in calcium flux by FLIPR assay; assay type: cell-based
[12] = target: T1, N-formyl peptide receptor 2; assay: Agonist activity at FPR2 (unknown origin) expressed in CHO/Galpha16 cells assessed as increase in calcium flux by FLIPR assay; assay type: cell-based
[13] = system: Mus musculus; assay: Anti-inflammatory activity against BALB/c mouse assessed as suppression ratio of LPS-induced neutrophil infiltration in lung at 3 mg/kg,po measured after 5.5 hrs by Diff-Quick staining based microscopic analysis; assay type: functional
[14] = target: T1, N-formyl peptide receptor 2; assay: Agonist activity at human FPR2 expressed in HEK293 cells assessed as increase in calcium flux incubated for 45 mins by Fluo-4 AM dye based fluorescence assay; assay type: cell-based
[15] = target: T4, fMet-Leu-Phe receptor (Homo sapiens); assay: Agonist activity at human FPR1 transfected in HL-60 cells assessed as maximal intracellular calcium flux incubated for 30 mins by Fluo-4 AM dye based fluorometer analysis relative to control; assay type: cell-based; conditions: filed as agonist
[16] = target: T3, N-formyl peptide receptor 2 (Homo sapiens); assay: Agonist activity at human FPR2 transfected in HL-60 cells assessed as maximal intracellular calcium flux incubated for 30 mins by Fluo-4 AM dye based fluorometer analysis relative to control; assay type: cell-based; conditions: filed as agonist
[17] = system: Mus musculus; assay: Anti-inflammatory activity against BALB/c mouse assessed as suppression ratio of LPS-induced neutrophil infiltration in lung at 1 mg/kg,po measured after 5.5 hrs by Diff-Quick staining based microscopic analysis; assay type: functional
[18] = target: T2, fMet-Leu-Phe receptor; assay: Agonist activity at human recombinant FPR1 stably transfected in Flp-In-CHO cells assessed as ERK1/2 phosphorylation incubated for 1 hr by Alphascreen fluorescence assay; assay type: cell-based
[19] = target: T3, N-formyl peptide receptor 2 (Homo sapiens); assay: Agonist activity at human recombinant FPR2 stably transfected in Flp-In-CHO cells assessed as ERK1/2 phosphorylation at 10 uM incubated for 1 hr by Alphascreen fluorescence assay relative to control; assay type: cell-based
[20] = target: T4, fMet-Leu-Phe receptor (Homo sapiens); assay: Agonist activity at human recombinant FPR1 stably transfected in Flp-In-CHO cells assessed as maximal intracellular calcium mobilization at 10 uM incubated for 1 hr by Fluo-4 AM dye based fluorescence plate reader assay relative to control; assay type: cell-based
[21] = target: T1, N-formyl peptide receptor 2; assay: Agonist activity at human recombinant FPR2 stably transfected in Flp-In-CHO cells assessed as increase in intracellular calcium mobilization incubated for 1 hr by Fluo-4 AM dye based fluorescence plate reader assay; assay type: cell-based
[22] = target: T4, fMet-Leu-Phe receptor (Homo sapiens); assay: Agonist activity at human recombinant FPR1 stably transfected in Flp-In-CHO cells assessed as ERK1/2 phosphorylation at 10 uM incubated for 1 hr by Alphascreen fluorescence assay relative to control; assay type: cell-based; conditions: filed as agonist
[23] = target: T2, fMet-Leu-Phe receptor; assay: Agonist activity at human recombinant FPR1 stably transfected in Flp-In-CHO cells assessed as increase in intracellular calcium mobilization incubated for 1 hr by Fluo-4 AM dye based fluorescence plate reader assay; assay type: cell-based
[24] = target: T3, N-formyl peptide receptor 2 (Homo sapiens); assay: Agonist activity at human recombinant FPR2 stably transfected in Flp-In-CHO cells assessed as maximal intracellular calcium mobilization at 10 uM incubated for 1 hr by Fluo-4 AM dye based fluorescence plate reader assay relative to control; assay type: cell-based
[25] = target: T1, N-formyl peptide receptor 2; assay: Agonist activity at human recombinant FPR2 stably transfected in Flp-In-CHO cells assessed as ERK1/2 phosphorylation incubated for 1 hr by Alphascreen fluorescence assay; assay type: cell-based

Compound: COc1cc(F)c([C@@H]2CN3CCON=C3[C@H]2NC(=O)Nc2ccc(F)cc2)c(F)c1
EC50 [1]: 0.02 nM

Compound: CCN1C[C@@H](c2ccc(OC)cc2)[C@H](NC(=O)Nc2ccc(F)cc2)C1=O
Ratio [13]: 97.4%
EC50 [14]: 0.13 nM

Compound: N#Cc1ccc(NC(=O)N[C@@H]2C(=O)NC[C@H]2c2cc3c(cc2F)OCC3)cc1
Ratio [17]: 99.2%

Compound: COc1cccc(Cc2cc(C)nn(C(C)C(=O)Nc3ccc(Cl)cc3)c2=O)c1 (racemic)
EC50 [18]: 1000 nM
Emax ([19]; filed as agonist): 82%
Emax [20]: 22%
EC50 [21]: > 10000 nM
Emax [22]: 70%
EC50 [23]: 7940 nM
Emax [24]: 6%
EC50 [25]: 1580 nM

Compound: COc1ccc(NC(=O)N[C@@H](Cc2ccc(C#N)cc2)C(=O)NCC2(c3ccc(O)cc3)CC2)cc1
EC50 [8]: 1600 nM
EC50 [10]: 1300 nM
Emax [16]: 75%

Compound: COc1ccc(NC(=O)N[C@@H](Cc2ccc(C#N)cc2)C(=O)NCC2(c3cccc(O)c3)CC2)cc1
EC50 [8]: 180 nM
EC50 [10]: 1400 nM
Emax [16]: 115%

Compound: COc1ccc(NC(=O)N[C@@H]2/C(=N/OCCO)NC[C@H]2c2c(F)cc(OC)cc2F)cc1
EC50 [14]: 0.27 nM
Ratio [17]: 96.8%

Compound: COc1cccc(Cc2cc(C)nn([C@@H](C)C(=O)Nc3ccc(Cl)cc3)c2=O)c1
EC50 [18]: 1260 nM
Emax [19]: 8%
Emax [20]: 16%
EC50 [21]: > 10000 nM
Emax [22]: 78%
EC50 [23]: > 10000 nM
Emax [24]: 4%
EC50 [25]: > 10000 nM

Compound: N/C(=N\C(=O)CCO)[C@H](Cc1ccc(Cl)cc1)NC(=O)Nc1ccc(Cl)cc1
Ratio [13]: 86%

Compound: COc1cccc(Cc2cc(C)nn([C@H](C)C(=O)Nc3ccc(Cl)cc3)c2=O)c1
EC50 [18]: 794 nM
Emax ([19]; filed as agonist): 85%
Emax [20]: 38%
EC50 [21]: > 10000 nM
Emax [22]: 82%
EC50 [23]: 3980 nM
Emax [24]: 8%
EC50 [25]: 1260 nM

Compound: COc1cc(F)c([C@@H]2CNC(=O)[C@H]2NC(=O)Nc2ccc(C)cc2)c(F)c1
Ratio [13]: 57%
EC50 [14]: 0.86 nM

Compound: COc1cccc(Cc2c(-c3ccccc3)c(C)nn(CC(=O)Nc3ccc(Br)cc3)c2=O)c1
EC50 [2]: Not Active
EC50 [3]: 150 nM
Emax [4]: 110%
EC50 [5]: 200 nM
Emax [6]: 115%

Further lines, with some results ahead:

EC50 ([2]; read-out: EC50): 900 nM
EC50 ([3]; hl-60): 13 nM
EC50 [5]: 270 nM
Emax [6]: 95%
Emax [7]: 60%
Compound: COc1ccc(Cc2c(C)c(C)nn(CC(=O)Nc3ccc(Br)cc3)c2=O)cc1
Emax [4]: 140%

EC50 [8]: 120 nM
EC50 [9]: 390 nM
EC50 [10]: 1600 nM
Compound: COc1cccc(-c2cc(C#N)c(C)n(CC(=O)Nc3ccc(Br)cc3)c2=O)c1

EC50 [11]: 13 nM
EC50 [12]: 3240 nM
Compound: CC(C)C(C(=O)O)C(C)NC(=O)Nc1ccc(Br)cc1 (stereo in doubt; 19)

EC50 [11]: 51 nM
EC50 [12]: 855 nM
Compound: CC(C)C(C(=O)O)C(C)NC(=O)Nc1ccc(Br)cc1 (stereo in doubt; 18)

EC50 [11]: 98 nM
EC50 [12]: 9940 nM
Compound: CC(C)C(C(=O)O)C(C)NC(=O)Nc1ccc(Br)cc1 (stereo in doubt; 20)

EC50 ([8]; hl-60): 410 nM
EC50 ([10]; hl-60): 5100 nM
Emax [15]: 55%
Emax [16]: 90%
Compound: COc1ccc(NC(=O)N[C@H](Cc2ccc(O)cc2)C(=O)NCC2(c3ccccc3)CC2)cc1

EC50 [11]: 1.7 nM
EC50 [12]: 25 nM
Compound: CC(C)C(C(=O)O)C(C)NC(=O)Nc1ccc(Br)cc1 (stereo in doubt; 21)

EC50 [8]: 8900 nM
EC50 [9]: 4500 nM
EC50 [10]: 12500 nM
Compound: O=C(Cn1c(=O)[nH]cc(-c2ccccc2)c1=O)Nc1ccc(Br)cc1

EC50 [5]: 19 nM
Emax [6]: 80%
Emax [7]: 85%
Compound: COc1cccc(Cc2c(C)c(C)nn(CC(=O)Nc3ccc(Br)cc3)c2=O)c1
Emax [4]: 85%

EC50 [14]: 0.17 nM
Compound: COc1ccc(C[C@H](NC(=O)Nc2ccc(Cl)cc2)c2noc(CCO)n2)cc1
Ratio [13]: 94%

EC50 [8]: 2900 nM
EC50 [10]: 1500 nM
Emax [15]: 95%
Emax [16]: 130%
Compound: COc1ccc(NC(=O)N[C@@H](Cc2ccc(O)cc2)C(=O)NCC2(c3ccccc3)CC2)cc1
